Experimental data reported in PubChem BioAssay AID330 (DTP/NCI, 2004).
Several values for one entry are separate records, joined by “and”; a condition that tells them apart may be missing. Equal entries are not always repeated. Inconclusive results and toxic doses are left out. How the source made its calls: active means survival T/C of 150% or more; inactive means T/C below 125% in these data.

Test system: P388 leukemia ip, CD2F1 mice, survival T/C
Test: NCI In Vivo Anticancer Drug Screen. Data for tumor model P388 Leukemia (intraperitoneal) in CD2F1 (CDF1) mice
Settings: endpoint: median survival time, higher = longer survival
How it was run: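 Mice carrying the transplanted tumor received test compound or vehicle. Survival was recorded in each group, and the value is the treated-group measurement divided by that of the vehicle-treated control group.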

[1] = dose: 50.0 mg/kg/injection, schedule: Q01DX009 (ip), vehicle: Klucel (hydroxypropylcellulose) (HPC)
[2] = dose: 60.0 mg/kg/injection, schedule: Q01DX005 (ip), vehicle: saline with Tween-80
[3] = dose: 120.0 mg/kg/injection, schedule: Q01DX005 (ip), vehicle: saline with Tween-80
[4] = dose: 240.0 mg/kg/injection, schedule: Q01DX005 (ip), vehicle: saline with Tween-80
[5] = dose: 100.0 mg/kg/injection, schedule: Q04DX003 (ip), vehicle: saline
[6] = dose: 200.0 mg/kg/injection, schedule: Q04DX003 (ip), vehicle: saline
[7] = dose: 400.0 mg/kg/injection, schedule: Q04DX003 (ip), vehicle: saline

Measured: T/C

COc1cc([N+](=O)[O-])c(OC)cc1C(C)=O
inactive: dose: 50.0 mg/kg/injection, schedule: Q01DX005 (ip), vehicle: Klucel (hydroxypropylcellulose) (HPC) 96 % of control | dose: 100.0 mg/kg/injection, schedule: Q01DX005 (ip), vehicle: Klucel (hydroxypropylcellulose) (HPC) 93 % of control | dose: 200.0 mg/kg/injection, schedule: Q01DX005 (ip), vehicle: Klucel (hydroxypropylcellulose) (HPC) 100 % of control

C1=NCc2nnn(Cc3ccccc3)c2N1
inactive: [1] 102 % of control | dose: 100.0 mg/kg/injection, schedule: Q01DX009 (ip), vehicle: Klucel (hydroxypropylcellulose) (HPC) 98 % of control | dose: 200.0 mg/kg/injection, schedule: Q01DX009 (ip), vehicle: Klucel (hydroxypropylcellulose) (HPC) 108 % of control

CCOC(=O)c1noc(Oc2ccc(Cl)cc2Cl)n1
inactive: [2] 93 % of control | [3] 97 % of control | [4] 90 % of control

O=C(/C=C/c1c(Cl)cccc1Cl)c1ccc(Cl)cc1
inactive: dose: 100.0 mg/kg/injection, schedule: Q04DX003 (ip), vehicle: saline with Tween-80 100 % of control | dose: 200.0 mg/kg/injection, schedule: Q04DX003 (ip), vehicle: saline with Tween-80 100 % of control | dose: 400.0 mg/kg/injection, schedule: Q04DX003 (ip), vehicle: saline with Tween-80 109 % of control

O=S(=O)(O)c1cccnc1
inactive: dose: 100.0 mg/kg/injection, schedule: Q01DX009 (ip), vehicle: saline 104 % of control | [5] 100 % of control | dose: 200.0 mg/kg/injection, schedule: Q01DX009 (ip), vehicle: saline 104 % of control | [6] 95 % of control | dose: 400.0 mg/kg/injection, schedule: Q01DX009 (ip), vehicle: saline 95 % of control | [7] 100 % of control

O=C1CSC(c2ccccc2Br)N1c1nncs1 (centres undefined)
inactive: [2] 101 % of control | [3] 97 % of control | [4] 93 % of control

CN1C(=O)C2(CC2C(=O)c2ccc(Cl)cc2)c2ccccc21 (centres undefined)
inactive: dose: 2.5 mg/kg/injection, schedule: Q04DX002 (ip), vehicle: saline with Tween-80 108 % of control | dose: 5.0 mg/kg/injection, schedule: Q04DX002 (ip), vehicle: saline with Tween-80 100 % of control | dose: 10.0 mg/kg/injection, schedule: Q04DX002 (ip), vehicle: saline with Tween-80 99 % of control

CC1CCOC(C)O1 (centres undefined)
inactive: [5] 100 % of control | [6] 104 % of control | [7] 101 % of control

C=CCC1CCC/C1=N\O (centres undefined)
inactive: [2] 105 % of control | [3] 104 % of control | [4] 100 % of control

CC1=NN(C(=O)c2ccc(Cl)cc2)C(=O)C1N=Nc1ccc(S(=O)(=O)Nc2nc(C)cc(C)n2)cc1 (centres undefined)
inactive: dose: 100.0 mg/kg/injection, schedule: Q01DX001 (ip), vehicle: saline with Tween-80 92 % of control | dose: 200.0 mg/kg/injection, schedule: Q01DX001 (ip), vehicle: saline with Tween-80 86 % of control | dose: 400.0 mg/kg/injection, schedule: Q01DX001 (ip), vehicle: saline with Tween-80 89 % of control

Cc1ccc2c(C)c3c(ccc4ccccc43)c[n+]2c1
inactive: dose: 2.5 mg/kg/injection, schedule: Q04DX003 (ip), vehicle: other 103 % of control | dose: 5.0 mg/kg/injection, schedule: Q04DX003 (ip), vehicle: other 101 % of control | dose: 10.0 mg/kg/injection, schedule: Q04DX003 (ip), vehicle: other 100 % of control | dose: 20.0 mg/kg/injection, schedule: Q04DX003 (ip), vehicle: other 104 % of control

C=CCN(N=Nc1ccc(Cl)cc1)c1ccc(Cl)cc1
inactive: dose: 25.0 mg/kg/injection, schedule: Q01DX009 (ip), vehicle: saline with Tween-80 104 % of control and 91 % of control | dose: 50.0 mg/kg/injection, schedule: Q01DX009 (ip), vehicle: saline with Tween-80 107 % of control and 117 % of control | dose: 100.0 mg/kg/injection, schedule: Q01DX009 (ip), vehicle: saline with Tween-80 108 % of control and 111 % of control | dose: 200.0 mg/kg/injection, schedule: Q01DX009 (ip), vehicle: saline with Tween-80 110 % of control and 117 % of control and 118 % of control

O=C1C2=C(OCCO2)C(=O)C2=C1OCCO2
inactive: dose: 100.0 mg/kg/injection, schedule: Q04DX002 (ip), vehicle: saline with Tween-80 99 % of control | dose: 200.0 mg/kg/injection, schedule: Q04DX002 (ip), vehicle: saline with Tween-80 111 % of control | dose: 400.0 mg/kg/injection, schedule: Q04DX002 (ip), vehicle: saline with Tween-80 106 % of control

O=C(NNc1ccccc1)c1ccccc1
inactive: dose: 3.13 mg/kg/injection, schedule: Q01DX009 (ip), vehicle: Klucel (hydroxypropylcellulose) (HPC) 100 % of control | dose: 6.25 mg/kg/injection, schedule: Q01DX009 (ip), vehicle: Klucel (hydroxypropylcellulose) (HPC) 98 % of control | dose: 12.5 mg/kg/injection, schedule: Q01DX009 (ip), vehicle: Klucel (hydroxypropylcellulose) (HPC) 100 % of control | dose: 25.0 mg/kg/injection, schedule: Q01DX009 (ip), vehicle: Klucel (hydroxypropylcellulose) (HPC) 100 % of control | [1] 113 % of control
